In publication PMC7041945, “Misfolded proteins bind and activate death receptor 5 to trigger apoptosis during unresolved endoplasmic reticulum stress” (eLife, 2020):
No end group written: not given here.

How the values were obtained:
DR5L ECD [1] = target: T1, DR5L ECD (Homo sapiens, UniProt O14763); assay: Fluorescence quenching of AlexaFluor647-DR5L ECD; type: binding
T1 construct: Gp67 (glycoprotein) signal peptide (N); made in house; host or cells: SF21 insect cells (baculovirus, Bac-to-Bac)
T1 sequence (O14763 72-213): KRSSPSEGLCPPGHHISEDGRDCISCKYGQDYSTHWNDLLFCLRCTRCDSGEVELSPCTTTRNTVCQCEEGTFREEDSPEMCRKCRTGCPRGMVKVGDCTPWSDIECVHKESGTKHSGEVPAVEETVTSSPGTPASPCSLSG
Description: The pFastBac HTB constructs were recombined into bacmid DNA using the Bac-to-Bac baculovirus expression system according to manufacturer’s protocols (Life Technologies).
Recombinant DR5 and TNFR1 ECD were labeled with AlexaFluor647 NHS Ester (Succinimidyl Ester) (Life Technologies # A37573) in a 3:1 dye:protein molar ratio in 30 mM HEPES pH 7.2, 150 mM NaCl, 1% DMF overnight at 4°C protected from light. The labeled proteins were re-loaded onto a SuperDex200 10/300 GL column to remove the excess dye, yielding labeling efficiencies of 59% and 49% for DR5 ECD and TNFR1 ECD, respectively. […]
To set up reactions, the unlabeled peptide titration (10 μl each) was made from a two-fold dilution series of the highest peptide concentration assayed. […] Samples were incubated for 30 min at RT protected from light before measuring fluorescence.
Samples were then loaded by capillary action onto premium capillaries (Nanotemper Technologies, cat. #MO-K025). Fluorescence was measured on a Monolith NT.115 Instrument (NanoTemper Technologies, Germany) using the capillary scan function at 25°C.
The half-maximum binding constant (K1/2) and Hill coefficient were determined by fitting the data points on Prism 6.0 to the model equation: Y = Bmax*X^h/(K1/2^h + X^h), where Y is the % quenching, X is the concentration of peptide, Bmax is the maximum % quenching, and h is the Hill slope.

DR5L ECD [2] = target: T1, DR5L ECD; assay: Size exclusion chromatography of DR5 ECD and peptide complex; type: biochemical; settings: 25 μM DR5L ECD; 100 μM fluorescein-conjugated peptide; overnight 4°C
Description: The specified concentration of protein and peptide were incubated overnight at 4°C. The following day, 200 ul of each sample was loaded onto a SuperDex200 10/300 GL column equilibrated with 30 mM HEPES pH 7.2, 150 mM NaCl at a flow rate of 0.5 ml/min. Fractions were collected in 1 ml aliquots.
For subsequent analysis of each fraction by SDS-PAGE, 1 ml fractions were concentrated to 50 μl using a 3 kDa MW cutoff and loaded onto a gel. The fluorescein-labeled peptide was visualized using the fluorescence detection mode on a Typhoon 9400 Variable Mode Imager (GE Healthcare). Protein was visualized by staining with Coomassie.

FTWREQPEGGRDAISIFHEA [MPZ-ecto^Tyr→Glu]
fluorescence quenching of AlexaFluor647-DR5L ECD (DR5L ECD [1]; increasing peptide, 200 nM ECD, N = 3): quenching was not observed | co-elution / oligomerization of DR5 ECD by size exclusion (DR5L ECD [2]): did not co-migrate with or induce the oligomerization of DR5 ECD

FTWRYQPEGGRDAISIFHYA [MPZ-ecto]
Kd (DR5L ECD [1]; AlexaFluor647-DR5L ECD 200 nM, 20 mM HEPES pH 7.2, 100 mM KOAc, 0.1% Tween-20, 30 min RT, read at 25°C, N = 3, ± SD, read-out: K1/2 (half-maximum binding constant, apparent binding affinity)): 109 ± 11 µM
